Assays:
3T3-L1 adipocytes = assay: 6-NBDG uptake screening in 3T3-L1 adipocytes, 96-well, fluorescent microplate reader; type: cell-based, murine; conditions: 100 nM insulin or 250 μM zinc sulfate; 6-NBDG vs 2-NBDG
Procedure: 3T3-L1 murine fibroblasts were maintained in proliferation media, consisting of DMEM supplemented with 10% FBS, 50 units/mL penicillin and 50 μg/mL streptomycin. 3T3-L1 fibroblasts were induced to differentiate into adipocytes as follows: 48 h postconfluent cells (designated day 0) were cultured in DMEM supplemented 10% FBS, 0.5 mM 3-isobutyl-1-methyl-xanthine, 2 μg/ml dexamethasone, 1 μg/ml insulin, 50 units/mL penicillin and 50 μg/mL streptomycin for 2 days. Every 2 days thereafter, the cells were incubated with fresh DMEM supplemented with 10% FBS and 1 μg/ml insulin. 3T3-L1 adipocytes were used for experiments 8 days after the induction of differentiation.
Three cell lines were chosen to test if NBDG can be used to detect insulin-stimulated glucose uptake in a 96 well plate culture format, which is more suitable for cell-based screening to identify novel insulin mimetic compounds. The cell lines chosen were Huh7 hepatocytes, C2C12 myoblasts and 3T3-L1 pre-adipocytes, which represent the major body tissue types that are sensitive to the action of insulin (liver, muscle and fat). 10^4 cells/well were seeded in a black, 96 well tissue culture plate (BD Falcon, NJ, USA). C2C12 myoblasts and 3T3-L1 adipocytes were induced to undergo differentiation into myotubes and adipocytes, respectively, to compare the NDBG signal in proliferating and differentiated cells. NBDG uptake was measured following treatment with 10 nM or 100 nM insulin, and 1 μM or 10 μM rosiglitazone (an insulin-sensitizing agent), using a fluorescent microplate reader (SpectraMAX GeminiXS and SoftMax Pro V5 software, Molecular Devices, CA, USA). Cells were cultured in serum-free low glucose culture media for 3 h before the addition of insulin.
To test the NBDG-based screening system, a combinatorial chemical library of 576 triazine-based small molecules was screened at a concentration of 5 μM. The combinatorial library was provided by Professor Young-Tae Chang, Department of Chemistry, National University of Singapore.
To test if this screening protocol could detect new insulin mimetic compounds, a combinatorial chemical library of 576 triazine-based small molecules was screened.

GLUT 1 = biological target: T1, GLUT 1 (Homo sapiens, UniProt P11166); conditions: cited from earlier work
T1 sequence (P11166 1-492): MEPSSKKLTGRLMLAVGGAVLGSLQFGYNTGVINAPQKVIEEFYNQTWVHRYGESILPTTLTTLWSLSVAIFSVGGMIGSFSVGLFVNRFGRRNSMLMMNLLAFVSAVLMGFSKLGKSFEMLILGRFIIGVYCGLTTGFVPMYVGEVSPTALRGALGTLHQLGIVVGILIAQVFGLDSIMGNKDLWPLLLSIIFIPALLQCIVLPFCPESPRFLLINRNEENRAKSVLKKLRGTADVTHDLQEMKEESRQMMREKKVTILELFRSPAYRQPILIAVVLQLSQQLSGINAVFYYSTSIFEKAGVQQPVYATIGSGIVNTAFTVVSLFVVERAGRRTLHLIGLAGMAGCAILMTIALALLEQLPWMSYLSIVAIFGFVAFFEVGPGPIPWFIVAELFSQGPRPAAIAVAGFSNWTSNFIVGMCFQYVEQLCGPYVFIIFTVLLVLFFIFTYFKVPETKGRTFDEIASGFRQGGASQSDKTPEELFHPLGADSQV

O=[N+]([O-])c1ccc(NCC2OC(O)C(O)C(O)[C@@H]2O)c2nonc12 (some centres unmarked) [6-NBDG, 6-(N-(7-nitrobenz-2-oxa-1,3-diazol-4-yl)amino)-6-deoxyglucose, reference compound]
fluorescent signal of probe after insulin-stimulated uptake (3T3-L1 adipocytes): produced a greater fluorescent signal than 2-NBDG
affinity for GLUT 1 relative to glucose (GLUT 1): 300 times

From patent publication US9254290B2, “Method for screening diabetes treating agent” (GWANGJU INSTITUTE OF SCIENCE AND TECHNOLOGY, priority 2010, dated 2016)
